According to PubChem BioAssay (NCI):
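Briefly, cells in 96-well plates were exposed to five compound concentrations for 48 h, and endpoints were estimated by linear interpolation. GI50 is the concentration that inhibits growth by half. TGI: concentration producing complete growth inhibition.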

Experiments:
Experiment in all cases: inhibition of tumour cell growth, NCI panel, 48 h
[1] = system: SK-MEL-5 melanoma
[2] = system: UACC-62 melanoma
[3] = system: 786-0 renal
[4] = system: PC-3 prostate
[5] = system: NCI/ADR-RES ovarian
[6] = system: MDA-MB-231 breast
[7] = system: NCI-H522 lung
[8] = system: NCI-H23 lung
[9] = system: MDA-MB-435
[10] = system: SK-MEL-28 melanoma

SMILES | TGI [1] [µM] | TGI [2] [µM] | TGI [3] [µM] | TGI [4] [µM] | TGI [5] [µM] | TGI [6] [µM] | TGI [7] [µM] | TGI [8] [µM] | TGI [9] [µM] | TGI [10] [µM] | GI50 [1] [µM] | GI50 [2] [µM] | GI50 [4] [µM] | GI50 [5] [µM] | GI50 [10] [µM] | GI50 [6] [µM] | GI50 [8] [µM] | GI50 [9] [µM] | GI50 [7] [µM]
N#Cc1c(-c2ccc(Cl)cc2)c2c(N=Nc3c(O)ccc4ccccc34)[nH]nc2[nH]c1=O | 1.62 | 0.324 | 2.04 | 2.05 | 0.777 | 1.08 | 0.823 | – | – | – | – | – | – | – | – | – | – | – | –
CN(C(=O)Cc1cc(Cl)c(Cl)cc1NC(=O)CN)[C@H]1CCCC[C@@H]1N1CCCC1 | – | 30.2 | 38 | > 100 | > 100 | 71.2 | – | > 100 | 32.6 | – | – | – | – | – | – | – | – | – | –
CC1C2=C(CCCC2=O)N(c2ccc(Cl)cc2)C2=C1C(=O)CCC2 | > 100 | > 100 | > 100 | > 100 | > 100 | – | – | > 100 | – | > 100 | – | – | – | – | – | – | – | – | –
CN(C)c1cccc2c1C(=O)C=CC21CCc2ccc(N(C)C)c3c(N(C)C)ccc1c23 (centres undefined) | 30.1 | 26.9 | 26.1 | 27.4 | > 100 | 31.2 | – | 37.4 | 28.6 | 30.4 | – | – | – | – | – | – | – | – | –
CCCC1(CCC)c2cc(/C=N\O)ccc2-c2ccc(-c3ccc(C(C)(C)C)cc3)cc21 | > 100 | – | > 100 | > 100 | > 100 | 39.7 | – | > 100 | – | 92.6 | – | – | – | – | – | – | – | – | –
Cc1ccc2[nH]c3[nH]c(=S)[nH]c(=O)c3c2c1 | > 100 | > 100 | > 100 | – | > 100 | > 100 | > 100 | > 100 | > 100 | – | – | – | – | – | – | – | – | – | –
CC1(C)OC[C@@H](O)[C@H](Br)CO1 | – | > 100 | > 100 | > 100 | – | > 100 | – | > 100 | > 100 | > 100 | – | – | – | – | – | – | – | – | –
NC(=O)c1c(NC=O)ncn1C1OCC(O)C(O)C1O (centres undefined) | > 100 | > 100 | > 100 | > 100 | > 100 | > 100 | > 100 | > 100 | > 100 | – | – | – | – | – | – | – | – | – | –
O=C(OC/C=C1C=C(OC(=O)c2ccccc2)/C(=N/N(C(=O)c2ccccc2)c2ccccc2)O\1)c1ccccc1 | 35.5 | – | 2.95 | – | – | – | – | – | – | – | 19 | – | – | – | – | – | – | – | –
COC(=O)/C=C(\S/C=C(/c1ccccc1)N1CCn2c(C(=O)c3ccccc3)c(C(=O)OC)c(C(=O)OC)c21)C(=O)OC | > 10 | > 10 | 3.19 | > 10 | > 10 | 5.27 | 1.73 | > 10 | > 10 | – | – | – | – | – | – | – | – | – | –
COc1ccc(C2C3CCCC(C3=O)C(c3ccc(OC)cc3)N2N=O)cc1 (centres undefined) | 32.4 | 97.4 | – | – | > 87.2 | – | 34.6 | 44.5 | – | > 100 | – | – | – | – | – | – | – | – | –
CCn1c2ccccc2c2ccc(C3C(C(=O)OC)=C(C)NC(C)=C3C(=O)OC)cc21 | > 100 | > 100 | > 100 | – | > 100 | > 100 | – | > 100 | > 100 | > 100 | – | – | – | – | – | – | – | – | –
CC(CN(C)C)C(=O)c1ccccc1 (centres undefined) | > 100 | > 57.4 | > 52.3 | – | – | – | 4.32 | 68 | – | > 56.6 | – | – | – | – | – | – | – | – | –
Cc1ccc(O)c(C2=CC(c3cccc(Br)c3)SC(N)=N2)c1 (centres undefined) | 32 | 34.5 | 74.4 | > 100 | 71.9 | 64 | 37.7 | 76.3 | 37.2 | – | – | – | – | – | – | – | – | – | –
CN1C(=O)CC2CCC(=O)N2c2cccnc21 (centres undefined) | > 100 | > 100 | > 100 | – | > 100 | > 100 | > 100 | > 100 | > 100 | > 100 | – | – | – | – | – | – | – | – | –
CC(=O)C(=[N+]=[N-])C(=O)N(C)CCC#N | – | > 10 | > 10 | > 10 | – | > 10 | – | > 10 | > 10 | > 10 | – | – | – | – | – | – | – | – | –
ClCc1cccc(CSc2ncnc3c2ncn3Cc2cccc(CCl)c2)c1 | 2.9 | 3.46 | – | 3.34 | 6.83 | 3.82 | 3.42 | 3.88 | 3.67 | 3.08 | 1.56 | 1.76 | 1.67 | 2.11 | 1.59 | 1.93 | 1.75 | 1.71 | 1.42
CO[C@@H]1C[C@H](OC(N)=O)[C@@H]2C=C[C@@H]3/C=C(C)/C=C/[C@@H](C)[C@H](/C(C)=C/[C@@H](C)NC(C)=O)OC(=O)/C=C/C=C(C)\C=C\[C@]3(C)[C@@H]2C1 | 0.604 | 0.292 | 2.74 | 1.58 | 2.69 | – | 0.103 | 2.84 | 3.11 | 0.458 | – | – | – | – | – | – | – | – | –
O=C1CSC2=NC3=C(CSC/C3=C\c3ccccc3)C(c3ccccc3)N12 (centres undefined) | > 100 | > 100 | > 100 | > 100 | > 100 | > 100 | – | > 100 | > 100 | > 100 | – | – | – | – | – | – | – | – | –
OC12c3ccccc3C3CCC4(OCCO4)C3C1c1ccccc12 (centres undefined) | > 100 | > 100 | > 100 | – | – | – | > 100 | > 100 | – | > 100 | – | – | – | – | – | – | – | – | –
O=C(Nc1nnc(-c2c(Cl)c(Cl)c(Cl)c(Cl)c2-c2nc3cc(C(=O)c4ccccc4)ccc3[nH]2)o1)c1ccc(Cl)cc1 | 39.9 | – | > 100 | > 100 | > 100 | > 100 | – | > 100 | > 100 | > 100 | – | – | – | – | – | – | – | – | –
C(=Nc1ccc(-c2nc3ccccc3[nH]2)cc1)c1ccco1 | > 100 | > 100 | > 100 | > 100 | > 100 | – | > 100 | > 100 | > 100 | > 100 | – | – | – | – | – | – | – | – | –
COc1ccc2nc3n(c2c1)C(=O)c1ccccc1-3 | > 100 | > 100 | > 100 | > 100 | > 100 | – | > 100 | > 100 | – | > 100 | – | – | – | – | – | – | – | – | –
COC1CCC(=O)N1CN(C(C)=O)c1ccc(C)cc1 (centres undefined) | > 100 | > 100 | > 100 | > 100 | > 100 | > 100 | – | > 100 | > 100 | > 100 | – | – | – | – | – | – | – | – | –
